Measurements from article PMC9085577, “Discovery of a Potent and Orally Active Dual GPBAR1/CysLT1R Modulator for the Treatment of Metabolic Fatty Liver Disease” (Frontiers in Pharmacology, 2022).

Test: In vivo stability: amount of compound 2 in plasma of mice
Details: 30 mg/kg
Procedure: The amount of compound 2 in plasma samples of animals treated with compound 2 was evaluated measuring the peak area of the compound at 1, 6, and 24 h after administration. 50 μL of plasma samples were mixed with 200 μL of acetonitrile, vortexed and incubated for 1 h on ice. Samples were then centrifuged for 10 min at 10,000 rpm and supernatants were evaporated to dryness. For LC/MS-MS analysis a QTRAP 6500 System (AB Sciex) equipped with Shimadzu LC-20A LC and AutoSampler was employed. […] The transition 356 →143 was employed for quantification. The following parameters were set: positive mode, DP 120 eV, EP 12 eV, CE 40 eV, CXP 23 V, CUR 30 psi, CAD Medium, IS 5500 V, TEM 350°C, GS1 and GS2 50 psi.
Given the promising results obtained during in vitro pharmacokinetics studies, the profile of disappearance of compound 2 was also evaluated in vivo. Mice were treated with compound 2 and plasma samples withdrawn 1, 6, and 24 h after administration were analyzed by LC-MSMS to evaluate the concentration of compound 2.

O=C(O)c1cccc(-c2ccc(OCc3ccc4ccccc4n3)cc2)c1 [Compound 2, 4'-(quinolin-2-ylmethoxy)-[1,1′-biphenyl]-3-carboxylic acid]
compound remaining in plasma (6 h after administration): considerable percentage of compound 2 is still present
compound remaining in plasma (24 h after administration): approximately 20%
